Measured values taken from patent US9790229B2, “Bruton's tyrosine kinase inhibitors” (priority 2009, dated 2017).

target: BTK (Homo sapiens (Human), UniProt Q06187); test: In vitro BTK kinase assay: BTK-POLYGAT-LS ASSAY; conditions: not given
Sequence (Q06187 whole entry): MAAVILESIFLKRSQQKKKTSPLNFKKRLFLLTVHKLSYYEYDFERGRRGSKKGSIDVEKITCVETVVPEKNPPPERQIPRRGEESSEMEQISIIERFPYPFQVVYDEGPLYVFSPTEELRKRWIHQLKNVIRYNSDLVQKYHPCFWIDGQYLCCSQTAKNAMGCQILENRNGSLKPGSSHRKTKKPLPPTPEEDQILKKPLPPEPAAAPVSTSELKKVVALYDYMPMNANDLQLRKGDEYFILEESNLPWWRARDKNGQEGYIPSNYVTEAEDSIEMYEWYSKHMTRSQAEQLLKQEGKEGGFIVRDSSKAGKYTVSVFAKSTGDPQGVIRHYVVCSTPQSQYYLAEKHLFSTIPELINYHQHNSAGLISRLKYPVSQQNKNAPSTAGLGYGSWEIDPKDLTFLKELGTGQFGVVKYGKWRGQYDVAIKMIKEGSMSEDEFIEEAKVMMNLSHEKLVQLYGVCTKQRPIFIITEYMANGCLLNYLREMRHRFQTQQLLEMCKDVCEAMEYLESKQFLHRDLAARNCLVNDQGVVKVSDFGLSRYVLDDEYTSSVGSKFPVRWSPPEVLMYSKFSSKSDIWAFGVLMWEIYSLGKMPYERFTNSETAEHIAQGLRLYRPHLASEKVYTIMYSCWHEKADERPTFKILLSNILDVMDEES

CO[C@@H]1CCN(c2ccccc2NC(=O)Nc2cccc(C3CCCN(c4ncnc5[nH]ccc45)C3)c2)C1 (stereo partly shown) [compound 176] was tested. Which IC50 did it give?
The IC50 was 100 to 999 nM.

O=C(Nc1cccc(C2CCCN(c3ncnc4[nH]ccc34)C2)c1)Nc1ccccc1F (stereo not shown) [compound 182] was tested. Which IC50 did it give?
The IC50 was 1000 to 10000 nM.

Which IC50 does the source give for O=C1[C@H](Nc2ccccc2)CCN1[C@@H]1CCCN(c2ncnc3[nH]ccc23)C1 [compound 273] here?
The IC50 was 100 to 999 nM.

For c1ccc(Nc2cccc(C3CCCN(c4ncnc5[nH]ccc45)C3)c2)nc1 (stereo not shown) [compound 140, N-(3-(1-(7H-pyrrolo[2,3-d]pyrimidin-4-yl)piperidin-3-yl)phenyl)pyridin-2-amine], which IC50 is on record?
Its IC50 is 1000 to 10000 nM.

With O=C(Nc1cc(C2CCCN(c3ncnc4[nH]ccc34)C2)ccc1OC(F)(F)F)c1c(Cl)cccc1Cl (stereo not shown) [Cmpd 88, N-(5-(1-(7H-pyrrolo[2,3-d]pyrimidin-4-yl)piperidin-3-yl)-2-(trifluoromethoxy)phenyl)-2,6-dichlorobenzamide] as the molecule, how does the IC50 read?
Its IC50 is 1000 to 10000 nM.

For N#Cc1c(N)ncnc1N1CCCC(c2ccc(OC(F)(F)F)c(NC(=O)C3CCCCC3)c2)C1 (stereo not shown) [compound 144, N-(5-(1-(6-amino-5-cyanopyrimidin-4-yl)piperidin-3-yl)-2-(trifluoromethoxy)phenyl)cyclohexanecarboxamide], which IC50 is on record?
The IC50 was 1000 to 10000 nM.

For O=C(Nc1ccc(Cl)cc1)Nc1cccc(C2CCCN(c3ncnc4[nH]ccc34)C2)c1 (stereo not shown) [Cmpd 27, 1-(3-(1-(7H-pyrrolo[2,3-d]pyrimidin-4-yl)piperidin-3-yl)phenyl)-3-(4-chlorophenyl)urea], which IC50 is on record?
The IC50 was 1000 to 10000 nM.

How did the IC50 turn out when O=C(Nc1cccc(C2CCCN(c3ncnc4[nH]ccc34)C2)c1)Nc1ccccc1C1CCCC1 (stereo not shown) [Cmpd 48, 1-(3-(1-(7H-pyrrolo[2,3-d]pyrimidin-4-yl)piperidin-3-yl)phenyl)-3-(2-cyclopentylphenyl)urea] was run?
The IC50 was 100 to 999 nM.

With Cc1ccnc(Cl)c1NC(=O)Nc1cccc(C2CCCN(c3ncnc4[nH]ccc34)C2)c1 (stereo not shown) [compound 190] as the molecule, how does the IC50 read?
Its IC50 is 1000 to 10000 nM.

O=C(Nc1cccc(C2CCCN(c3ncnc4[nH]ccc34)C2)c1)Nc1cc(F)ccc1N1CCCC1 (stereo not shown) [compound 160] was tested. Which IC50 did it give?
Its IC50 is 100 to 999 nM.

Nc1ncnc(N2CC[C@H](O)[C@@H](N3CCCC(Nc4cc(Cl)cc(Cl)c4)C3=O)C2)c1F (stereo partly drawn) [compound 325, trans 1′-(6-Amino-5-fluoropyrimidin-4-yl)-3-(3,5-dichlorophenylamino)-4′-hydroxy-1,3′-bipiperidin-2-one] was tested. Which IC50 did it give?
The IC50 was 100 to 999 nM.

With O=C(Nc1cccc(C2CCCN(c3ncnc4[nH]ccc34)C2)c1)Nc1c(F)cccc1C(F)(F)F (stereo not shown) [compound 194] as the molecule, how does the IC50 read?
The IC50 was 1000 to 10000 nM.

With CN(C)[C@H]1CCN(c2ccccc2NC(=O)Nc2cccc(C3CCCN(c4ncnc5[nH]ccc45)C3)c2)C1 (stereo partly shown) [compound 192] as the molecule, how does the IC50 read?
Its IC50 is 1000 to 10000 nM.

With O=C(Nc1cccc(C2CCCN(c3ncnc4[nH]ccc34)C2)c1)NC1CCC1 (stereo not shown) [compound 204] as the molecule, how does the IC50 read?
The IC50 was 1000 to 10000 nM.

For CC(C)(C)c1ccccc1NC(=O)Nc1cccc([C@@H]2CCCN(c3ncnc4[nH]ccc34)C2)c1 [compound 189], which IC50 is on record?
Its IC50 is 1000 to 10000 nM.

How did the IC50 turn out when COc1cccc(NC(=O)Nc2cccc(C3CCCN(c4ncnc5[nH]ccc45)C3)c2)c1 (stereo not shown) [compound 187] was run?
Its IC50 is 1000 to 10000 nM.

For O=C(Nc1cccc(C2CCCN(c3ncnc4[nH]ccc34)C2)c1)[C@H](O)c1ccccc1 (stereo partly drawn) [Cmpd 19, (2R)—N-(3-(1-(7H-pyrrolo[2,3-d]pyrimidin-4-yl)piperidin-3-yl)phenyl)-2-hydroxy-2-phenylacetamide], which IC50 is on record?
Its IC50 is 1000 to 10000 nM.

How did the IC50 turn out when Nc1ncnc(N2CC[C@H](C(F)(F)F)[C@@H](N3CCC[C@H](Nc4cc(Cl)cc(Cl)c4)C3=O)C2)c1F [compound 338, trans (3S)-1′-(6-amino-5-fluoropyrimidin-4-yl)-3-(3,5-dichlorophenylamino)-4′-(trifluoromethyl)-1,3′-bipiperidin-2-one] was run?
Its IC50 is 1000 to 10000 nM.

With C[C@H]1CCCN1c1ccccc1NC(=O)Nc1cccc(C2CCCN(c3ncnc4[nH]ccc34)C2)c1 (stereo partly shown) [compound 188] as the molecule, how does the IC50 read?
The IC50 was 1000 to 10000 nM.

O=C(NCc1ccccc1)Nc1cccc(C2CCCN(c3ncnc4[nH]ccc34)C2)c1 (stereo not shown) [compound 219] was tested. Which IC50 did it give?
The IC50 was 1000 to 10000 nM.

O=C1C(Nc2ccccc2)CCCN1[C@@H]1CCCN(c2ncnc3[nH]ccc23)C1 (stereo partly drawn) [compound 271, (3′R)-3-(phenylamino)-1′-(7H-pyrrolo[2,3-d]pyrimidin-4-yl)-1,3′-bipiperidin-2-one] was tested. Which IC50 did it give?
The IC50 was 100 to 999 nM.

same assay, conditions: read-out: IC50 (10 uM ATP); 10 uM ATP; in vitro Btk kinase assay, Example 41

For Nc1ncnc(N2CCC[C@@H](N3CCC[C@@H](Nc4cc(Cl)cc(Cl)c4)C3=O)C2)c1F [compound 315, (3R,3′R)-1′-(6-Amino-5-fluoropyrimidin-4-yl)-3-(3,5-dichlorophenylamino)-1,3′-bipiperidin-2-one], which IC50 is on record?
Its IC50 is under 100 nM.

With CC(C)(C)c1cccc(NC(=O)Nc2cccc(C3CCCN(c4ncnc5[nH]ccc45)C3)c2)c1 (stereo not shown) [compound 264] as the molecule, how does the IC50 read?
Its IC50 is over 10000 nM.

Which IC50 does the source give for N#Cc1c(N)ncnc1N1CCCC(c2nc(NC(=O)Nc3ccccc3N3CCCC3)cs2)C1 (stereo not shown) [compound 109, 1-(2-(1-(6-amino-5-cyanopyrimidin-4-yl)piperidin-3-yl)thiazol-4-yl)-3-(2-(pyrrolidin-1-yl)phenyl)urea] here?
Its IC50 is under 100 nM.

For CC(C)(C)c1ccc(NC(=O)Nc2cccc(C3CCCN(c4ncnc5[nH]ccc45)C3)c2)cc1 (stereo not shown) [compound 263], which IC50 is on record?
Its IC50 is over 10000 nM.

With O=C1[C@H](Nc2cc(Cl)cc(Cl)c2)CCN1[C@@H]1CCCN(c2ncnc3[nH]ccc23)C1 [compound 323, (R)-1-((R)-1-(7H-Pyrrolo[2,3-d]pyrimidin-4-yl)piperidin-3-yl)-3-(3,5-dichlorophenylamino)pyrrolidin-2-one] as the molecule, how does the IC50 read?
The IC50 was under 100 nM.

With O=C(Nc1csc(C2CCCN(c3ncnc4[nH]ncc34)C2)n1)Nc1c(F)cc(F)cc1N1CCCC1 (stereo not shown) [compound 112, 1-(2-(1-(1H-pyrazolo[3,4-d]pyrimidin-4-yl)piperidin-3-yl)thiazol-4-yl)-3-(2,4-difluoro-6-(pyrrolidin-1-yl)phenyl)urea] as the molecule, how does the IC50 read?
Its IC50 is under 100 nM.

How did the IC50 turn out when O=C(Nc1cccc(C2CCCN(c3ncnc4[nH]ccc34)C2)c1)Nc1cccc2[nH]ncc12 (stereo not shown) [compound 226] was run?
Its IC50 is over 10000 nM.

How did the IC50 turn out when CC1(C)[C@@H]2CCC(CNC(=O)Nc3cccc(C4CCCN(c5ncnc6[nH]ccc56)C4)c3)[C@H]1C2 (stereo partly shown) [compound 258] was run?
Its IC50 is over 10000 nM.

Which IC50 does the source give for Cc1cc(NC(=O)Nc2cccc(C3CCCN(c4ncnc5[nH]ccc45)C3)c2)c(C(F)(F)F)o1 (stereo not shown) [compound 236] here?
The IC50 was over 10000 nM.

With COc1cccc(C(=O)Nc2cccc(C3CCCN(c4ncnc5[nH]ccc45)C3)c2)c1 (stereo not shown) [Cmpd 7, N-(3-(1-(7H-pyrrolo[2,3-d]pyrimidin-4-yl)piperidin-3-yl)phenyl)-3-methoxybenzamide] as the molecule, how does the IC50 read?
Its IC50 is over 10000 nM.

Nc1ncnc(N2CCC(C(F)(F)F)C(N3CC=CC[C@@H](Nc4cc(F)cc(Cl)c4)C3=O)C2)c1F (stereo partly drawn) [compound 349, trans (R,Z)-1-(-1-(6-amino-5-fluoropyrimidin-4-yl)-4-(trifluoromethyl)piperidin-3-yl)-3-(3-chloro-5-fluorophenylamino)-3,4-dihydro-1H-azepin-2(7H)-one] was tested. Which IC50 did it give?
The IC50 was under 100 nM.

O=C1C(Nc2cc(Cl)cc(C(F)(F)F)c2)CCCN1[C@@H]1CCCN(c2ncnc3[nH]ncc23)C1 (stereo partly drawn) [compound 305, (3′R)-3-(3-Chloro-5-(trifluoromethyl)phenylamino)-1′-(1H-pyrazolo[3,4-d]pyrimidin-4-yl)-1,3′-bipiperidin-2-one] was tested. Which IC50 did it give?
Its IC50 is under 100 nM.

O=C(Nc1ccccc1)Nc1cc(C2CCCN(c3ncnc4[nH]ccc34)C2)cc(C(F)(F)F)c1 (stereo not shown) [Cmpd 83, 1-(3-(1-(7H-pyrrolo[2,3-d]pyrimidin-4-yl)piperidin-3-yl)-5-(trifluoromethyl)phenyl)-3-phenylurea] was tested. Which IC50 did it give?
The IC50 was over 10000 nM.
